# In patent US20240124564A1, “ANTI-CLEAVED HISTONE H3 MONOCLONAL ANTIBODY THAT SPECIFICALLY RECOGNIZES NEUTROPHIL EXTRACELLULAR TRAPS” (Max-Planck-Gesellschaft zur Förderung der Wissenschaften …, priority 2021, published 2024):
# No end group written: not given here.
# What was measured:
# [1] = system: Histone H3 cleavage by serine proteases; assay: PMA induced histone H3 cleavage in neutrophils (immunoblot) with serine protease inhibition; assay type: cell-based, human; settings: preincubation 30 min
# Procedure: (§1) Lysates were resolved by SDS-PAGE and immunoblotted with N- and C-terminal antibodies to H3. GAPDH was used as a loading control. […] At 150 min the cells were fixed and stained for neutrophil elastase (NE), chromatin (using a H2A-H2B-DNA antibody PL2.3) and DNA using DAPI (4′,6-diamidino-2-phenylindole). NS: non-stimulated. Images were taken at 63× and the scale bar is 20 μm.
# For all experiments, unless indicated, neutrophils were cultured RPMI (GIBCO 32404014) supplemented with 10 mM HEPES and 0.1% (w/v) HSA, which had been preequilibrated in CO2 conditions for 1 h. Cells were routinely cultured at 37° C., 5% CO2 unless indicated. For all experiments, stimuli were added to cell reactions as 10× working stock solutions freshly diluted in RPMI. For inhibition experiments, a 10× inhibitor stock and appropriate vehicle controls, were added to the cells and preincubated for the times stated in the figure legends.
# To analyse proteins, lysates were prepared from stimulated or resting neutrophils. Cells were seeded in culture medium in 1.5 ml microcentrifuge tubes at 1×10^7 cells/ml with 5×10^6 cells per time point. After addition of the inhibitor or agonist, cells were gently mixed and incubated at 37° C. with gentle rotation. […]
# For routine protein analysis, samples were analysed by 1D SDS-PAGE and immunoblotted. […] Blotting efficacy was assessed by Ponceau S staining. […]
# NET formation = NET formation by immunofluorescent confocal microscopy with serine protease inhibition; assay type: cell-based, human; settings: preincubation, PMA 50 nM, 150 min
# Procedure: as §1
# For immunofluorescent imaging of purified cells, neutrophils/PBMCs were seeded in 24 well dishes containing glass coverslips, with 1×10^5 cells per well and incubated at 37° C. for 1 h allowing to adhere to the coverslip. At this stage, inhibitors and priming factors were included as indicated. Reactions were stopped by the addition of paraformaldehyde (2% [w/v]) for 20 min at RT or 4° C. overnight. After fixation, cells were washed and stained as previously described (Brinkmann et al 2012). Briefly, all steps were performed by floating inverted coverslips on drops of buffer on laboratory parafilm. Cells were permeabilised with PBS, pH 7.5, 0.5% (v/v) Triton X-100 for 3 min. For screening and quantification experiments, this permeabilization step was extended to 10 min. […]
# 3D9 binding to NETs = assay: Peptide competition assay; design: species or system human; settings: 3D9 preincubated overnight with peptide; PMA 3 h neutrophils
# Procedure: NS: non-stimulated. Images were taken on an upright fluorescent microscope at 20×. Scale bars-50 μm (full field) and 10 μm (inset). • (B) Immunoblots of lysates prepared from neutrophils stimulated with PMA (50 nM) for the times indicated in the figure. […] Samples were serially diluted and immobilized on a high affinity ELISA plate according to DNA content (for NETs, chromatin and DNA) or protein content (for recombinant histone H3) as determined by PicoGreen and bicinchoninic acid assays respectively. Starting concentration was 1 μg/ml DNA or protein. […] Data is presented for dilution 200 ng/ml. REIRR indicates unconjugated branched immunising peptide control formed by SEQ ID NO 11 and SEQ ID NO 26. This peptide was coated at 20 ng/ml. […] (F, G) Neutrophils were seeded in 10 ml petri dishes and stimulated for 3 h with PMA. Before total cell lysis and immunoprecipitation, NETs were digested with benzonase to liberate histones and octamers for antibody binding. […] (F) Coomassie stained gel of proteins immunoprecipitated by 3D9 or isotype control and the corresponding silver stained gel. The predicted cleaved H3 and intact H3 bands are indicated. […]
# Neutrophils were seeded on coverslips in a 24 well dish (1×10^5 cells/well) and stimulated with PMA for 3 h and fixed with 2% PFA. […] Peptide competition was assessed visually by fluorescent microscopy.
competition of 3D9 staining of NETs (3D9 binding to NETs),Compound,effect on H3 cleavage upon PMA stimulation [1],effect on NET formation (NET formation)
,"NCCc1ccc(S(=O)(=O)F)cc1 [AEBSF, 4-[2-aminoethyl] benzensulfonylfluoride]",inhibited H3 cleavage,inhibited NET formation and nuclear decondensation
could block 3D9 binding to NETs,"branched immunising peptide: branched peptide formed by REIRR (SEQ ID NO 11) and REIRRKC-NH2 (SEQ ID NO 12) (also: branched: C-terminus of chain 1 amide-linked to Lys6 side chain of chain 2, chain 2 conjugated to KLH via Cys thiol, lactam at chain B 6 to a chain's C-terminus; listed as Homo sapiens)",,
